The text below walks through data of patent publication US20220370384A1, “COMBINATIONS OF MEK INHIBITORS WITH CAP-DEPENDENT ENDONUCLEASE INHIBITORS” (priority 2019, published 2022).

Format in all cases: cell-based, influenza virus
The test system of assay [1] is A/Mississippi/3/2001 (H1N1) mutant strain with the H275Y mutation in the NA gene.
Assay [2] has as its system rgA/Victoria/3/75 (H3N2-PA-I38T).
Assay [3] concerns rgA/Giessen/6/09 (H1N1)-PA-I38T.

Turning to `O=C(NOCC1CC1)c1ccc(F)c(F)c1Nc1ccc(I)cc1Cl` [CI-1040], the antiviral effectiveness result in assay [1] is listed as “comparable antiviral effect”.

With `COC(=O)OCOc1c2n(ccc1=O)N([C@@H]1c3ccccc3SCc3c1ccc(F)c3F)[C@@H]1COCCN1C2=O` [BLXM], the “activity lost in the mutant variant” value in assay [2] is “about 41%”. Besides, the “activity lower when investigated using the mutant strain” value in assay [3] is 37%.

For `O=C(O)c1ccc(F)c(F)c1Nc1ccc(I)cc1Cl` [ATR002, 2-(2-chloro-4-iodophenylamino)-N-3,4-difluoro benzoic acid], the antiviral activity result in assay [2] was “revealed its potency against both variants”. In addition, in assay [3], the “antiviral effect in mutant strain compared with wild type” value is listed as “steady effect as found in the wild type”.

Regarding `CCOC(=O)C1=C[C@@H](OC(CC)CC)[C@H](NC(C)=O)[C@@H](N)C1` [oseltamivir], in assay [1], the antiviral effectiveness entry was “significant reduction in oseltamivir effectiveness”.
